The subject of the assay is anemic rats. In words: hemoglobin-repletion test in anemic rats (relative bioavailability of iron). The assay is classed as in vivo, Sprague-Dawley rats. Particulars: high iron diet, 20 mg/kg of diet, after 14 days of feeding.

Description: Male weanling Sprague-Dawley rats housed individually in stainless steel cages were fed a low-iron diet and de-ionized distilled water ad lib for 24 days. The low-iron diet contained no more than about 3 mg of iron per kg of diet. Following the 24 day depletion period, approximately 200 μl of blood was drawn from the tail vein of each rat for hemoglobin analysis. Anemic rats having hemoglobin values between 30 and 60 g/L were used in the study. The rats were housed individually in cages in a randomized block design.

For the substance ferrous sulfate, the mean hemoglobin response is recorded as 31 g/L.

For the origin of these results see patent US6830761B1, “Composition comprising micro-encapsulated iron” (Ped-Med Ltd., priority 1998, dated 2004).
